Each structure is given as a SMILES string.

The test concerns the target T1, ALDH1A3 (Homo sapiens, UniProt P47895).
T1 sequence (P47895 1-512): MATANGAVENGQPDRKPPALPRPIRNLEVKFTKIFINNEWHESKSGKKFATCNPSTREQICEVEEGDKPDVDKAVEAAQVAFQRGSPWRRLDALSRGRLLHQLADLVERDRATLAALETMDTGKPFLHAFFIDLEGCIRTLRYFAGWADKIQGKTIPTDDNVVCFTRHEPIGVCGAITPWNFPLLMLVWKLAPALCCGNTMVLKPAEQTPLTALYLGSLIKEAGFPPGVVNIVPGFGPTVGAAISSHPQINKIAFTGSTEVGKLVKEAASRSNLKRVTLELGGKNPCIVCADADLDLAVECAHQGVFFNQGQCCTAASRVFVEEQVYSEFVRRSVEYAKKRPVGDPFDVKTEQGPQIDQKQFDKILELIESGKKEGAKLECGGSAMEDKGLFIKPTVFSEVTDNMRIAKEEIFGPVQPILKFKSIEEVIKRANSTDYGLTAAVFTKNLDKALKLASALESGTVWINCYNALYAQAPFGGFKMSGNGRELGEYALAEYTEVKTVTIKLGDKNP
Kind of test: Primary biochemical assay, NAD(P)H-Glo Detection System. To be noted: 30 min pre-incubation, propionaldehyde and NAD at Km. Further details: His-tag; made in house; host or cells: E. coli Rosetta (DE3). The source says: Cloning: Open reading frames corresponding to the protein coding sequences of full length human ALDH1A1 (Uniprot ID P00352), ALDH1A2 (094788) and ALDH1A3 (P47895) were polymerase chain reaction (PCR) amplified from human cDNA and inserted into the multi-cloning sites of the commercially available (Novagen) E. coli expression vectors pET47b (ALDH1A1, EcoRI restriction site; ALDH1A2, BamHI and EcoRI sites) or pET28a (ALDH1A3, NdeI and BamHI sites), using standard molecular genetic techniques. Recombinant DNA products were sequence verified prior to use in expression studies.
Expression: Expression constructs were transformed into the E. coli strain Rosetta (DE3) (Merck) and individual colonies used to inoculate 10 mL lysogen broth (LB) medium supplemented with kanamycin and chloramphenicol at 50 μg/mL and 34 μg/mL, respectively. Cultures were grown to saturation overnight at 37° C., prior to being used to sub-inoculate fresh 1 L LB medium cultures (plus antibiotics, as before). 1 L cultures were grown at 37° C., 200 rpm, throughout the day until the optical density at 600 nm (OD600) reached ˜0.8, at which point growth temperature was reduced to 18° C. and 1 mM isopropyl β-d-1-thiogalacto pyranoside (IPTG) added to induce protein expression.
Cultures were left overnight (at least 16 h) under these conditions and the following day harvested by centrifugation (4000 G, 10 minutes). Culture supernatant was discarded and cell pellets stored at −80° C. until further processing.
Purification: Cell pellets were thawed on ice, re-suspended in Ni Affinity Buffer A (20 mM HEPES pH 7.5, 300 mM NaCl, 20 mM imidazole, 1 mM tris(2-carboxyethyl)phosphine (TCEP)) with protease inhibitors (cOmplete Ultra protease inhibitor, Roche), and lysed by sonication. Lysates were clarified by centrifugation at 18,000 G, 4° C., for 40 minutes, and loaded directly onto a pre-equilibrated (Buffer A) 5 mL HisTrap Fast Flow column (GE Healthcare) by way of an AKTA Fast Protein Liquid Chromatography (FPLC) system. The column was sequentially treated with 6 column volumes (CV) 100% Buffer A, 8 CV of 90% Buffer A:10% Buffer B (20 mM 4-(2-hydroxyethyl)-1-piperazineethanesulfonic acid (HEPES) pH 7.5, 300 mM NaCl, 500 mM imidazole, 1 mM TCEP) and finally a linear gradient from 10-70% Buffer B over 8 CV to elute recombinant His-tagged protein. Relevant fractions (as measured by 280 nm absorbance) collected during elution were pooled and subjected to further purification by size exclusion chromatography (Superdex 200 26/600, GE Healthcare, running buffer 20 mM 2-(carbamoylmethylamino)ethanesulfonic acid (ACES) pH 7.5, 1 mM TCEP). Relevant fractions from this step were pooled, aliquoted, and stored at −80° C. until required for compound profiling assays.
Materials: ALDH2 was purchased from Abnova. Tris(hydroxymethyl)aminomethane (Tris) was purchased from MP Biomedicals. TCEP, ethylenediaminetetraacetic acid (EDTA), propionaldehyde, DMSO and Tween-20 were purchased from Sigma. Nicotinamide adenine dinucleotide (NAD) was obtained from Abcam. The NAD(P)H-Glo™ Detection System was purchased from Promega. White, non-binding surface, 384 well plates were supplied by Corning (#3574).
Method: Inhibition of ALDH1A3 was assessed using the NAD(P)H-Glo™ Detection System (Cat. No. G9062) from Promega. This assay detects the production of NADH from NAD by ALDH1A3 via the coupled enzymatic conversion of a proluciferin reductase substrate to generate a luminescent signal. Inhibition of ALDH1A3 by small molecule inhibitors will result in reduction or abrogation of luminescence signal increase above background. Inhibition of ALDH1A1, ALDH1A2 and ALDH2 (selectivity assays) were assessed using the same assay.
Compounds were dosed into Corning 384 well assay plates using an Echo acoustic dispenser to give 10 point curves in a 3-fold dilution series. Compounds were dispensed from a 20 mM DMSO stock and initially screened at a top concentration of 20 μM (ALDH1A3) or 250 μM (ALDH1A1, ALDH1A2 & ALDH2). […]
The term IC50 denotes the midpoint of a concentration-inhibition curve. A higher IC50 goes with weaker potency in that assay. `O=C1CSc2cc(OCCN3CCCC3c3cccnc3)ccc2N1` (centres unmarked) [ALDHI-2028, 7-[2-[2-(3-pyridyl)pyrrolidin-1-yl]ethoxy]-4H-1,4-benzothiazin-3-one] returned an IC50 of less than 100 nM.
Take `O=C1CCc2cc(OCCN(CCO)Cc3cccc(F)c3)ccc2N1` [ALDHI-3002, 6-[2-[(3-fluorophenyl)methyl-(2-hydroxyethyl)amino]ethoxy]-3,4-dihydro-1H-quinolin-2-one]: the IC50 was less than 100 nM.
In turn, `C[C@H](c1ccccc1)N(CCO)CCOc1ccc2c(c1)CCC(=O)N2` [ALDHI-3006, 6-[2-[2-hydroxyethyl-[(1R)-1-phenylethyl]amino]ethoxy]-3,4-dihydro-1H-quinolin-2-one] displayed a half-maximal inhibitory concentration (IC50) of 100 to 1000 nM.
Next, `O=C1CCc2cc(NC(=O)c3cncnc3-c3cccc(F)c3)ccc2N1` [ALDHI-1018, 4-(3-fluorophenyl)-N-(2-oxo-3,4-dihydro-1H-quinolin-6-yl)pyrimidine-5-carboxamide]: 100 to 1000 nM; `O=c1ccc2cc(OCCN3CCCC3c3cccc(F)c3)ccc2[nH]1` (centres unmarked) [ALDHI-2022, 6-[2-[2-(3-fluorophenyl)pyrrolidin-1-yl]ethoxy]-1H-quinolin-2-one]: less than 100 nM; `CN(CCOc1ccc2c(c1)CCC(=O)N2)Cc1cccnc1` [ALDHI-3010, 6-[2-[methyl(3-pyridylmethyl)amino]ethoxy]-3,4-dihydro-1H-quinolin-2-one]: 100 to 1000 nM.
Molecule `O=C1CCc2cc(OCCN3CCCC3c3ccccc3)ccc2N1` (centres unmarked) [ALDHI-2019, 6-[2-(2-phenylpyrrolidin-1-yl)ethoxy]-3,4-dihydro-1H-quinolin-2-one] came in with a 50% inhibitory concentration (IC50) of 100 to 1000 nM.
Next, `O=C1CCc2cc(OCCN3CCCC3c3ccc(F)cc3)ccc2N1` (centres unmarked) [ALDHI-2003, 6-[2-[2-(4-fluorophenyl)pyrrolidin-1-yl]ethoxy]-3,4-dihydro-1H-quinolin-2-one]: less than 100 nM.
Take `O=C1CCc2cc(OCCN3CCCC3c3ccsc3)ccc2N1` (centres unmarked) [ALDHI-2014, 6-[2-[2-(3-thienyl)pyrrolidin-1-yl]ethoxy]-3,4-dihydro-1H-quinolin-2-one]: the half-inhibitory concentration (IC50) was less than 100 nM.
Molecule `Cc1ccccc1C1CCCN1CCOc1ccc2c(c1)CCC(=O)N2` (centres unmarked) [ALDHI-2012, 6-[2-[2-(o-tolyl)pyrrolidin-1-yl]ethoxy]-3,4-dihydro-1H-quinolin-2-one] showed an IC50 of 100 to 1000 nM.
The molecule `CCN(CC)CCN(CCOc1ccc2c(c1)CCC(=O)N2)Cc1ccccc1` [ALDHI-3004, 6-[2-[benzyl-[2-(diethylamino)ethyl]amino]ethoxy]-3,4-dihydro-1H-quinolin-2-one] came in with a half-inhibitory concentration (IC50) of 100 to 1000 nM.
As for `O=C1CCc2cc(OCCn3ccnc3-c3ccccc3)ccc2N1` [ALDHI-2041, 6-[2-(2-phenylimidazol-1-yl)ethoxy]-3,4-dihydro-1H-quinolin-2-one], the figure is 100 to 1000 nM; as for `O=C1CCc2cc(OCCN3CCCCC3c3cccc(F)c3)ccc2N1` (centres unmarked) [ALDHI-2038, 6-[2-[2-(3-fluorophenyl)-1-piperidyl]ethoxy]-3,4-dihydro-1H-quinolin-2-one], less than 100 nM; as for `Cc1cccc(C2CCCN2CCOc2ccc3c(c2)CCC(=O)N3)c1` (centres unmarked) [ALDHI-2011, 6-[2-[2-(m-tolyl)pyrrolidin-1-yl]ethoxy]-3,4-dihydro-1H-quinolin-2-one], 100 to 1000 nM.
Molecule `Cc1ccc(C2CCCN2CCOc2ccc3c(c2)CCC(=O)N3)cc1` (centres unmarked) [ALDHI-2010, 6-[2-[2-(p-tolyl)pyrrolidin-1-yl]ethoxy]-3,4-dihydro-1H-quinolin-2-one] displayed an IC50 of less than 100 nM.
For `O=C1CCc2cc(OCCN3CCC3c3cccc(F)c3)ccc2N1` (centres unmarked) [ALDHI-2021, 6-[2-[2-(3-fluorophenyl)azetidin-1-yl]ethoxy]-3,4-dihydro-1H-quinolin-2-one], the IC50 was 100 to 1000 nM.
For the molecule `O=C1CCc2cc(OCCN3CCCC3c3ccccn3)ccc2N1` (centres unmarked) [ALDHI-2006, 6-[2-[2-(2-pyridyl)pyrrolidin-1-yl]ethoxy]-3,4-dihydro-1H-quinolin-2-one], the IC50 was 100 to 1000 nM.

(Values after patent US20240174634A1, “Aldehyde Dehydrogenase Inhibitors and Their Therapeutic Use” (priority 2020, published 2024).)
